Data on 35 molecules can be found in patent publication US8278304B2, “Substituted 4-hydroxypyrimidine-5-carboxamides” (Merck Sharp & Dohme Corp., priority 2008, dated 2012).

Structures can show the parent of a compound that is named as a salt. Some results are limits rather than exact numbers.

This assay has as its target T1, PHD2 (Homo sapiens, UniProt Q9GZT9).
T1 construct: FLAG-tagged full length PHD2 expressed in and purified from baculovirus-infected Sf9 cells; FLAG; made in house; host or cells: baculovirus-infected Sf9 cells
The assay can be described thus: PHD2 / HIF-1α peptide hydroxylation assay, time resolved fluorescence (VHL complex detection). It counts as biochemical. Particulars: FLAG-tagged full length PHD2; 0.2 μM 2-oxoglutarate, 0.5 μM HIF-1α peptide; read-out: PHD2 Activity (PHD2 binding activity expressed as IC50 (nM)). As to the method: To each well of a 96-well plate was added 1 μL of test compound in DMSO and 20 μl of assay buffer (50 mM Tris pH 7.4/0.01% Tween-20/0.1 mg/ml bovine serum albumin/10 μM ferrous sulfate/1 mM sodium ascorbate/20 μg/ml catalase) containing 0.15 μg/ml FLAG-tagged full length PHD2 expressed in and purified from baculovirus-infected Sf9 cells. After a 30 min preincubation at room temperature, the enzymatic reactions were initiated by the addition of 4 μL of substrates (final concentrations of 0.2 μM 2-oxoglutarate and 0.5 μM HIF-1α peptide biotinyl-[…]).

T1 sequence (Q9GZT9 whole entry): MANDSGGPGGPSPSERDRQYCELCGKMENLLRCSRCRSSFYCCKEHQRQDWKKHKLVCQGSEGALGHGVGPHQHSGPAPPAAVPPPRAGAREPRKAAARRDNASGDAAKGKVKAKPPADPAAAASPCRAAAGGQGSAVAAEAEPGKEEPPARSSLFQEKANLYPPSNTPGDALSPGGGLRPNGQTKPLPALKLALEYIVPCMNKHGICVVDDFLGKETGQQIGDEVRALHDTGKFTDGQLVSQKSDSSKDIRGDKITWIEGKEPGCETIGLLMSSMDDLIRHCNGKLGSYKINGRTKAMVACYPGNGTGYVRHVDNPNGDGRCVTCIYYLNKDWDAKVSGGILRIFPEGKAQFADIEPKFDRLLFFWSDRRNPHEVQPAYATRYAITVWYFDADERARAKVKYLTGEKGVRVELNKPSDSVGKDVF

As a reminder, the IC50 is the midpoint of a concentration-inhibition curve. In the case of `C[C@H](NC(=O)c1cnc(-n2cccn2)nc1O)c1ccc2c(c1)OCCO2` [Example 132, N-[(1S)-1-(2,3-dihydro-1,4-benzodioxin-6-yl)ethyl]-4-hydroxy-2-(1H-pyrazol-1-yl)pyrimidine-5-carboxamide], the IC50 was at most 10 nM. Turning to `CC(C)CC(NC(=O)c1cnc(-c2cccnn2)nc1O)c1ccc(C#N)cc1` (single isomer, unassigned) [Example 158, N-[1-(4-cyanophenyl)-3-methylbutyl]-4-hydroxy-2-(pyridazin-3-yl)pyrimidine-5-carboxamide], the IC50 was at most 10 nM.

For the molecule `O=C(NCc1ccc(F)cc1)c1cnc(-c2ncccn2)nc1O` [Example 21, N-(4-fluorobenzyl)-4-hydroxy-2,2′-bipyrimidine-5-carboxamide], the IC50 was 1000 to 10000 nM. As for `COc1ccc(C(NC(=O)c2cnc(-c3cccnn3)nc2O)c2ccc(C)nc2)cc1` (centres unmarked) [Example 114, 4-Hydroxy-N-[(4-methoxyphenyl)(6-methylpyridin-3-yl)methyl]-2-pyridazin-3-ylpyrimidine-5-carboxamide], the IC50 is at most 10 nM.

Turning to `O=C(NC(c1ccccc1)c1ccccc1)c1cnc(-n2cncn2)nc1O` [Example 46, N-(diphenylmethyl)-4-hydroxy-2-(1H-1,2,4-triazol-1-yl)pyrimidine-5-carboxamide], the IC50 lay in the range of 100 to 1000 nM.

For the molecule `COc1ccc(C(NC(=O)c2cnc(-c3cccnn3)nc2O)c2ccc(OC)nc2)cc1` (centres unmarked) [Example 170, 4-hydroxy-N-[(4-methoxyphenyl)(6-methoxypyridin-3-yl)methyl]-2-(pyridazin-3-yl)pyrimidine-5-carboxamide], the IC50 was at most 10 nM. Consider `CC(C)(NC(=O)c1cnc(-c2cc(Br)ccn2)nc1O)c1ccccc1` [Example 1, 2-(4-Bromopyridin-2-yl)-4-hydroxy-N-(1-methyl-1-phenylethyl)pyrimidine-5-carboxamide], for which the IC50 fell in the range of 10 to 100 nM. As to `O=C(NCc1cnc(-c2ccc(F)cc2)cn1)c1cnc(-n2cccn2)nc1O` [Example 109, N-{[5-(4-fluorophenyl)pyrazin-2-yl]methyl}-4-hydroxy-2-(1H-pyrazol-1-yl)pyrimidine-5-carboxamide], the IC50 lay within 10 to 100 nM.

With `O=C(NCc1ccc(C(F)(F)F)cc1)c1cnc(-c2cnccn2)nc1O` [Example 20, 4-Hydroxy-2-pyrazin-2-yl-N-[4-(trifluoromethyl)benzyl]pyrimidine-5-carboxamide], the IC50 was in the range of 10 to 100 nM. `O=C(N[C@@H]1CONC1=O)c1cnc(-n2cccn2)nc1O` [Example 83, 4-Hydroxy-N-[(4R)-3-oxoisoxazolidin-4-yl]-2-(1H-pyrazol-1-yl)pyrimidine-5-carboxamide]: the IC50 lay in the range of 100 to 1000 nM. For `CC[C@@H](NC(=O)c1cnc(-c2csc(C)n2)nc1O)c1ccccc1` [Example 36, 4-Hydroxy-2-(2-methyl-1,3-thiazol-4-yl)-N-[(1R)-1-phenylpropyl]pyrimidine-5-carboxamide], the IC50 fell in the range of 10 to 100 nM.

Consider `COc1ccc(C(NC(=O)c2cnc(-c3cccnn3)nc2O)c2ccc(C#N)cc2)cc1` (single isomer, unassigned) [Example 151, N-[(4-cyanophenyl)(4-methoxyphenyl)methyl]-4-hydroxy-2-(pyridazin-3-yl)pyrimidine-5-carboxamide], for which the IC50 is at most 10 nM. `COc1ccc(C(NC(=O)c2cnc(-n3cccn3)nc2O)c2cnccn2)cc1` (centres unmarked) [Example 166, 4-hydroxy-N-[(4-methoxyphenyl)(pyrazin-2-yl)methyl]-2-(1H-pyrazol-1-yl)pyrimidine-5-carboxamide]: the IC50 was at most 10 nM.

Regarding `C[C@H](NC(=O)c1cnc(-c2cccnn2)nc1O)c1ccc(Br)cc1` [Example 25, N-[(1S)-1-(4-bromophenyl)ethyl]-4-hydroxy-2-pyridazin-3-ylpyrimidine-5-carboxamide], the IC50 is at most 10 nM. As to `CC(C)(C)C1CCC(NC(=O)c2cnc(-n3cccn3)nc2O)CC1` (centres unmarked) [Example 82, N-(4-tert-butylcyclohexyl)-4-hydroxy-2-(1H-pyrazol-1-yl)pyrimidine-5-carboxamide], the IC50 was in the range of 10 to 100 nM. Regarding `O=C(NCc1ccc(Br)cc1)c1cnc(-n2cccn2)nc1O` [Example 9, N-(4-bromobenzyl)-4-hydroxy-2-(1H-pyrazol-1-yl)pyrimidine-5-carboxamide], the IC50 was at most 10 nM. With `Cc1nc(-c2ncc(C(=O)NCc3ccc(Cl)cc3Cl)c(O)n2)cs1` [Example 37, N-(2,4-dichlorobenzyl)-4-hydroxy-2-(2-methyl-1,3-thiazol-4-yl)pyrimidine-5-carboxamide] the figure was 10 to 100 nM; with `O=C(NCc1cc(C(F)(F)F)cc(C(F)(F)F)c1)c1cnc(-n2cccn2)nc1O` [Example 65, N-[3,5-bis(trifluoromethyl)benzyl]-4-hydroxy-2-(1H-pyrazol-1-yl)pyrimidine-5-carboxamide], 100 to 1000 nM. On to `COc1ccc(C(NC(=O)c2cnc(-c3cccnn3)nc2O)c2ccc(O)cc2)cc1` (single isomer, unassigned) [Example 157, 4-hydroxy-N-[(4-hydroxyphenyl)(4-methoxyphenyl)methyl]-2-(pyridazin-3-yl)pyrimidine-5-carboxamide], for which the IC50 was at most 10 nM. On to `COc1ccc(C(NC(=O)c2cnc(-c3cccnn3)nc2O)c2ccc3ccccc3n2)cc1` (centres unmarked) [Example 171, 4-hydroxy-N-[(4-methoxyphenyl)(quinolin-2-yl)methyl]-2-(pyridazin-3-yl)pyrimidine-5-carboxamide], for which the IC50 was at most 10 nM. With `CC(NC(=O)c1cnc(-n2cccn2)nc1O)c1ccc(C(F)(F)F)nc1` (single isomer, unassigned) [Example 141, 4-hydroxy-2-(1H-pyrazol-1-yl)-N-{1-[6-(trifluoromethyl)pyridin-3-yl]ethyl}pyrimidine-5-carboxamide], the IC50 is at most 10 nM. Take `Cc1ccc([C@H](C)NC(=O)c2cnc(-n3cccn3)nc2O)cc1` [Example 79, 4-Hydroxy-N-[(1S)-1-(4-methylphenyl)ethyl]-2-(1H-pyrazol-1-yl)pyrimidine-5-carboxamide]: the IC50 was at most 10 nM. With `Cc1nc(-c2ncc(C(=O)Nc3ccc(C(F)(F)F)cc3)c(O)n2)cs1` [Example 34, 4-Hydroxy-2-(2-methyl-1,3-thiazol-4-yl)-N-[4-(trifluoromethyl)phenyl]pyrimidine-5-carboxamide] the figure was 1000 to 10000 nM; with `O=C(NCc1ccc(Cl)nc1)c1cnc(-n2cccn2)nc1O` [Example 59, N-[(6-chloropyridin-3-yl)methyl]-4-hydroxy-2-(1H-pyrazol-1-yl)pyrimidine-5-carboxamide], 10 to 100 nM; with `O=C(NCc1ccc(-c2cccc(F)c2)nc1)c1cnc(-n2cccn2)nc1O` [Example 107, N-{[6-(3-fluorophenyl)pyridin-3-yl]methyl}-4-hydroxy-2-(1H-pyrazol-1-yl)pyrimidine-5-carboxamide trifluoroacetate (salt)], at most 10 nM. As to `CCCC(NC(=O)c1cnc(-n2cccn2)nc1O)c1ccc(-c2ccccc2)cc1` (centres unmarked) [Example 165, N-[1-(biphenyl-4-yl)butyl]-4-hydroxy-2-(1H-pyrazol-1-yl)pyrimidine-5-carboxamide], the IC50 is at most 10 nM. For `O=C(NC1CCc2ccccc21)c1cnc(-n2cccn2)nc1O` (centres unmarked) [Example 57, N-(2,3-dihydro-1H-inden-1-yl)-4-hydroxy-2-(1H-pyrazol-1-yl)pyrimidine-5-carboxamide], the IC50 was 10 to 100 nM. In the case of `O=C(NC(c1ccccc1)c1ccc(C(F)(F)F)nc1)c1cnc(-n2cccn2)nc1O` (single isomer, unassigned) [Example 143, 4-hydroxy-N-{phenyl[6-(trifluoromethyl)pyridin-3-yl]methyl}-2-(1H-pyrazol-1-yl)pyrimidine-5-carboxamide], the concentration for half-maximal inhibition (IC50) was at most 10 nM. Take `O=C(NC(c1ccccc1)c1ccccn1)c1cnc(-c2cccnn2)nc1O` (centres unmarked) [Example 136, 4-hydroxy-N-[phenyl(pyridin-2-yl)methyl]-2-pyridazin-3-ylpyrimidine-5-carboxamide trifluoroacetate (salt)]: the IC50 was at most 10 nM.

On to `COC(=O)c1ccc(CNC(=O)c2cnc(-n3cccn3)nc2O)cc1` [Example 103, methyl 4-[({[4-hydroxy-2-(1H-pyrazol-1-yl)pyrimidin-5-yl]carbonyl}amino)methyl]benzoate], for which the IC50 was in the range of 10 to 100 nM.

`CC(C)(O)[C@H](NC(=O)c1cnc(-n2cccn2)nc1O)c1ccccc1` [Example 128, 4-hydroxy-N-[(1R)-2-hydroxy-2-methyl-1-phenylpropyl]-2-(1H-pyrazol-1-yl)pyrimidine-5-carboxamide]: the IC50 was at most 10 nM.

As for `O=C(NCc1ccc(-c2ccc(F)cc2)cc1)c1cnc(-n2cccn2)nc1O` [Example 63, N-[(4′-fluorobiphenyl-4-yl)methyl]-4-hydroxy-2-(1H-pyrazol-1-yl)pyrimidine-5-carboxamide], the IC50 is at most 10 nM. As for `CC(C)(NC(=O)c1cnc(-n2cccn2)nc1O)C(=O)N1CCc2ccccc21` [Example 189, N-[1-(2,3-dihydro-1H-indol-1-yl)-2-methyl-1-oxopropan-2-yl]-4-hydroxy-2-(1H-pyrazol-1-yl)pyrimidine-5-carboxamide], the IC50 is at most 10 nM. On to `O=C(NCc1ccc(-c2ccc(F)cc2)nc1)c1cnc(-n2cccn2)nc1O` [Example 108, N-{[6-(4-fluorophenyl)pyridin-3-yl]methyl}-4-hydroxy-2-(1H-pyrazol-1-yl)pyrimidine-5-carboxamide], for which the IC50 is at most 10 nM. For `COc1ccc(C(NC(=O)c2cnc(-c3cccnn3)nc2O)c2ccc(SC)cc2)cc1` (centres unmarked) [Example 178, 4-hydroxy-N-{(4-methoxyphenyl)[4-(methylsulfanyl)phenyl]methyl}-2-(pyridazin-3-yl)pyrimidine-5-carboxamide], the IC50 was at most 10 nM.
